Results: patent US8546421B1, “Oncogenic-RAS-signal dependent lethal compounds” (The Trustees of Columbia University in the City of New York, priority 2007, dated 2013)
“Also recorded” adds a separate entry of the source.

How the values were obtained:
[1] = test system: BJ-TERT/LT/ST/RAS^V12 cells; experiment: Counter screening with iron chelators; format: cell-based, human; conditions: DFOM and three additional iron-binding compounds; 24 hours
Experimental: Cells were treated with iron chelators by transferring 4 μL of 1 mM deferoxamine mesylate (Calbiochem, cat.#252750), 500 μM compound 1a (Chembridge, cat.#5175092), 1 mM compound 2 (Ryan Scientific, cat.#LT01784723), or 100 μM compound 311 (Chembridge, cat.#5135701) in growth media to the assay plate. Then, 4 μL was transferred from the ‘10× lethal plate’ (described in ‘counter screening with biologically active compounds’) to the assay plate in order to induce cell death. Assay plates were incubated for 24 hours and alamar blue was added to the plates at a final concentration of 10%.

SF-295 = experiment: NCI60 anti-cancer screening; conditions: for GI50 / CC50: Homo sapiens; for GI50 / GI 100%: SF-295; for CC50: SF-295, read-out: LC 50%; for GI 100%: CNS Cancer
HCC-2998 = experiment: NCI60 anti-cancer screening; conditions: for GI 100%: HCC-2998, Colon Cancer; for GI50 / CC50: Homo sapiens; for GI50: HCC 2998; for CC50: HCC 2998, read-out: LC 50%
NCI-H322M = experiment: NCI60 anti-cancer screening; conditions: for GI50 / CC50: Homo sapiens; for CC50: read-out: LC 50%; for GI 100%: Non-small cell lung carcinoma
NCI-H522 = experiment: NCI60 anti-cancer screening; conditions: for GI50 / CC50: Homo sapiens; for GI50 / GI 100%: NCI-H522; for CC50: NCI-H522, read-out: LC 50%; for GI 100%: Non-small cell lung carcinoma
SK-MEL-28 = experiment: NCI60 anti-cancer screening; conditions: for GI50 / CC50: Homo sapiens; for GI50 / GI 100%: SK-MEL-28; for CC50: SK-MEL-28, read-out: LC 50%; for GI 100%: Melanoma
MCF-7 = experiment: NCI60 anti-cancer screening; conditions: for GI50 / CC50: Homo sapiens; for GI50: MCF7; for CC50: MCF7, read-out: LC 50%; for GI 100%: MCF-7, Breast Cancer
SNB-75 = experiment: NCI60 anti-cancer screening; conditions: for GI50 / CC50: Homo sapiens; for GI50 / GI 100%: SNB-75; for CC50: SNB-75, read-out: LC 50%; for GI 100%: CNS Cancer
HT1080-TfR1KD cells = experiment: Drug sensitivity after shRNA knockdown of TfR1; format: cell-based, human; conditions: alamar blue
Experimental: (§1) On day one, 3×10^5 Calu-1 cells or 2×10^5 HT1080 cells were seeded in 10-cm dishes; on day 2, frozen virus stock was thawed at 37° C., hexadimethrine bromide (polybrene) (Sigma, cat.#H9268) was added to the virus solution at a final concentration of 8 μg/mL and growth media from cell culture was replaced with the virus/polybrene mixture. The culture was returned to the tissue culture incubator for 2 hours, with rocking of the dishes every 30 min in order to prevent drying. After 2 h, 10 mL growth medium was added, the culture was incubated for 2 days, and cells stably expressing shRNA were selected by adding puromycin (Sigma, cat.#P9620) at a final concentration of 1.5 μg/mL.
(§2) On the day of experiment, assay plates were prepared by seeding 3,000 HT1080, HT1080-pLKO, HT1080-TfR1 KD, Calu-1, Calu-1-pLKO, or Calu-1-509 cells per well in 36 μL of growth media to black, clear bottom 384-well plates. Also, assay plates were prepared by seeding 1,500 shRNA infected HT1080 or Calu-1 cells per well. Cells in assay plates were treated with each lethal compound in a 2-fold dilution series by transferring 4 μL solution from a 10× lethal plate of Erastin, Compound 3, Compound 27, or Compound 36. […] Percent growth inhibition (% GI) was calculated using fluorescence intensity values.

OVCAR-3 [2] = conditions: Ovarian Cancer
NCI-H460 = experiment: NCI60 anti-cancer screening; conditions: for GI50 / CC50: Homo sapiens; for GI50 / GI 100%: NCI-H460; for CC50: NCI-H460, read-out: LC 50%; for GI 100%: Non-small cell lung carcinoma
OVCAR-8 = experiment: NCI60 anti-cancer screening; conditions: for GI50 / CC50: Homo sapiens; for GI50 / GI 100%: OVCAR-8; for CC50: OVCAR-8, read-out: LC 50%; for GI 100%: Ovarian Cancer
OVCAR-4 = experiment: NCI60 anti-cancer screening; conditions: for GI50 / CC50: Homo sapiens; for GI50 / GI 100%: OVCAR-4; for CC50: OVCAR-4, read-out: LC 50%; for GI 100%: Ovarian Cancer
U251 = experiment: NCI60 anti-cancer screening; conditions: for GI50 / CC50: Homo sapiens; for GI50: U-251; for CC50: U-251, read-out: LC 50%; for GI 100%: U251, CNS Cancer
HS 578T = experiment: NCI60 anti-cancer screening; conditions: for GI 100%: HS 578T, Breast Cancer; for GI50 / CC50: Homo sapiens, Hs-578T; for CC50: read-out: LC 50%
CCRF-CEM = experiment: NCI60 anti-cancer screening; conditions: for GI50 / CC50: Homo sapiens; for CC50: read-out: LC 50%; for GI 100%: Leukemia
HL-60(TB) = experiment: cells; conditions: Homo sapiens; for GI50: HL-60; for CC50: HL-60, read-out: LC 50%
SN12C = experiment: NCI60 anti-cancer screening; conditions: for GI50 / CC50: Homo sapiens; for CC50: read-out: LC 50%; for GI 100%: Renal Cancer
MOLT-4 = experiment: NCI60 anti-cancer screening; conditions: for GI50 / CC50: Homo sapiens; for GI50 / GI 100%: MOLT-4; for CC50: MOLT-4, read-out: LC 50%; for GI 100%: Leukemia
OVCAR-3 [3] = experiment: cells; conditions: Homo sapiens; for GI50: OVCAR-3; for CC50: OVCAR-3, read-out: LC 50%
HOP-92 = experiment: NCI60 anti-cancer screening; conditions: for GI 100% / GI50: HOP-92; for GI 100%: Non-small cell lung carcinoma; for GI50 / CC50: Homo sapiens; for CC50: HOP-92, read-out: LC 50%
SW-620 = experiment: NCI60 anti-cancer screening; conditions: for GI50 / CC50: Homo sapiens; for GI50 / GI 100%: SW-620; for CC50: SW-620, read-out: LC 50%; for GI 100%: Colon Cancer
VDAC3 in HT1080 cells = experiment: Drug sensitivity after shRNA knockdown of VDAC3; format: cell-based, human; conditions: shRNAs targeting VDAC3, alamar blue
Experimental: as §1, §2

With `C=C1CCC2C(C)(C)CCC[C@]2(C)C1CC/C(C)=C\CC/C(C)=N/NC(N)=S` (some centres unmarked) [Compound 36] the “effect of iron chelators on compound activity / induced cell death” value [1] was “significantly inhibited”, the GI50 (SF-295) was 1.19 µM and the CC50 (SF-295) was 5.33 µM. For the same molecule, the “GI 100%” value (SF-295) was 2.52 µM, the “GI 100%” value (HCC-2998) was 0.733 µM and the GI50 (HCC-2998) was 0.24 µM. For the same molecule, the CC50 (HCC-2998) was 2.68 µM, the GI50 (NCI-H322M) was 0.606 µM and the CC50 (NCI-H322M) was 4.93 µM. For the same molecule, the “GI 100%” value (NCI-H322M) was 1.99 µM, the GI50 (NCI-H522) was 0.0829 µM and the CC50 (NCI-H522) was 1.18 µM. The “GI 100%” value (NCI-H522) was 0.309 µM, the GI50 (SK-MEL-28) was 0.239 µM and the CC50 (SK-MEL-28) was 2.07 µM. The “GI 100%” value (SK-MEL-28) was 0.592 µM, the GI50 (MCF-7) was 0.265 µM and the CC50 (MCF-7) was 3.83 µM. For the same molecule, the “GI 100%” value (MCF-7) was 1.34 µM, the GI50 (SNB-75) was 0.372 µM and the CC50 (SNB-75) was 4.3 µM. For the same molecule, the “GI 100%” value (SNB-75) was 1.26 µM, the “sensitivity of HT1080-TfR1KD cells compared with parental HT1080” value (HT1080-TfR1KD cells) was “decreased sensitivity” and the “GI 100%” value (OVCAR-3 [2]) was 0.804 µM. The GI50 (NCI-H460) was 0.626 µM, the CC50 (NCI-H460) was 5.02 µM and the “GI 100%” value (NCI-H460) was 2.02 µM. The GI50 (OVCAR-8) was 1.16 µM, the CC50 (OVCAR-8) was 7.48 µM and the “GI 100%” value (OVCAR-8) was 2.94 µM. The GI50 (OVCAR-4) was 0.147 µM, the CC50 (OVCAR-4) was 1.31 µM and the “GI 100%” value (OVCAR-4) was 0.405 µM. The GI50 (U251) was 0.47 µM, the CC50 (U251) was 4.12 µM and the “GI 100%” value (U251) was 1.7 µM. For the same molecule, the “GI 100%” value (HS 578T) was 2.27 µM, the GI50 (HS 578T) was 0.42 µM and the CC50 (HS 578T) was greater than 10 µM. For the same molecule, the GI50 (CCRF-CEM) was 0.165 µM, the CC50 (CCRF-CEM) was 5.57 µM and the “GI 100%” value (CCRF-CEM) was 0.705 µM. It also gave a GI50 (HL-60(TB)) of 0.163 µM, a CC50 (HL-60(TB)) of 2.62 µM and a GI50 (SN12C) of 0.351 µM. The CC50 (SN12C) was 3.67 µM, the “GI 100%” value (SN12C) was 1.35 µM and the GI50 (MOLT-4) was 0.0773 µM. For the same molecule, the CC50 (MOLT-4) was 7.39 µM, the “GI 100%” value (MOLT-4) was 1.1 µM and the GI50 (OVCAR-3 [3]) was 0.204 µM. For the same molecule, the CC50 (OVCAR-3 [3]) was 4.2 µM, the “GI 100%” value (HOP-92) was 1.52 µM and the GI50 (HOP-92) was 0.479 µM. It also gave a CC50 (HOP-92) of 3.96 µM, a GI50 (SW-620) of 0.184 µM and a CC50 (SW-620) of 2.54 µM. The “GI 100%” value (SW-620) was 0.569 µM.
`COC(=O)c1ccc(C2c3[nH]c4ccccc4c3CC(C(=O)OC)N2C(=O)CCl)cc1` (centres unmarked) [Compound 27] was tested, and the “effect of iron chelators on compound activity / induced cell death” value [1] was “suppressed by all of these iron chelators moderately; also recorded: significantly inhibited”, the GI50 (SF-295) was 1.1 µM and the CC50 (SF-295) was 8.06 µM. For the same molecule, the “GI 100%” value (SF-295) was 2.97 µM, the “GI 100%” value (HCC-2998) was 5.1 µM and the GI50 (HCC-2998) was 2.01 µM. It also gave a CC50 (HCC-2998) greater than 10 µM, a GI50 (NCI-H322M) of 3.6 µM and a CC50 (NCI-H322M) greater than 10 µM. The “GI 100%” value (NCI-H322M) was greater than 10 µM, the GI50 (NCI-H522) was 1.63 µM and the CC50 (NCI-H522) was 8.58 µM. For the same molecule, the “GI 100%” value (NCI-H522) was 3.74 µM, the GI50 (SK-MEL-28) was 1.62 µM and the CC50 (SK-MEL-28) was 6.76 µM. The “GI 100%” value (SK-MEL-28) was 3.31 µM, the GI50 (MCF-7) was 0.782 µM and the CC50 (MCF-7) was greater than 10 µM. For the same molecule, the “GI 100%” value (MCF-7) was 3.98 µM, the GI50 (SNB-75) was 0.745 µM and the CC50 (SNB-75) was greater than 10 µM. The “GI 100%” value (SNB-75) was 3.06 µM, the “GI 100%” value (OVCAR-3 [2]) was 1.57 µM and the GI50 (NCI-H460) was 1.43 µM. The CC50 (NCI-H460) was 6.74 µM, the “GI 100%” value (NCI-H460) was 3.11 µM and the GI50 (OVCAR-8) was 2.32 µM. The CC50 (OVCAR-8) was greater than 10 µM, the “GI 100%” value (OVCAR-8) was greater than 10 µM and the GI50 (OVCAR-4) was 4.3 µM. The CC50 (OVCAR-4) was greater than 10 µM, the “GI 100%” value (OVCAR-4) was greater than 10 µM and the GI50 (U251) was 1.1 µM. For the same molecule, the CC50 (U251) was 4.79 µM, the “GI 100%” value (U251) was 2.3 µM and the “GI 100%” value (HS 578T) was 2.85 µM. The GI50 (HS 578T) was 0.403 µM, the CC50 (HS 578T) was greater than 10 µM and the GI50 (CCRF-CEM) was 0.0195 µM. For the same molecule, the CC50 (CCRF-CEM) was 0.0953 µM, the “GI 100%” value (CCRF-CEM) was 0.0431 µM and the GI50 (HL-60(TB)) was 0.28 µM. It also gave a CC50 (HL-60(TB)) of 1.2 µM, a GI50 (SN12C) of 1.25 µM and a CC50 (SN12C) of 6.12 µM. For the same molecule, the “GI 100%” value (SN12C) was 2.77 µM, the GI50 (MOLT-4) was 1.02 µM and the CC50 (MOLT-4) was 7.39 µM. The “GI 100%” value (MOLT-4) was 2.74 µM, the GI50 (OVCAR-3 [3]) was 0.353 µM and the CC50 (OVCAR-3 [3]) was 6.59 µM. For the same molecule, the “GI 100%” value (HOP-92) was 1.07 µM, the GI50 (HOP-92) was 0.0991 µM and the CC50 (HOP-92) was 5.85 µM. The GI50 (SW-620) was 0.681 µM, the CC50 (SW-620) was 5.25 µM and the “GI 100%” value (SW-620) was 2.09 µM. The “effect of VDAC3 knockdown on compound-induced cell death” value (VDAC3 in HT1080 cells) was “not affected”.
